According to US20250359576A1, “THEANINE-CONTAINING COMPOSITION” (TAIYO KAGAKU Co., Ltd., priority 2024, published 2025):

Key:
panelists [1] = assay: Test Example 3: sensory evaluation of unpleasant taste (off-flavor) at high concentrations, upper limit; format: in vivo; settings: six panelists
Method: Solutions containing theanine (Taiyo Kagaku Co., Ltd.: Suntheanine (registered trademark) U001) were prepared to contain 0 (control), 100, 500, 1000, 5000, and 10000 ppm of organic nitrogen compound A or C.
More specifically, 1996 mL of deionized water was added to 4 g of theanine, to prepare the theanine control solution (2 mg/mL theanine solution). 10000 ppm organic nitrogen compound solutions were prepared by adding […] of theanine control solution to 10 g of each organic nitrogen compound A and C.
150 mL of theanine control solution was added to 150 mL of each of the 10000 ppm organic nitrogen compound solutions to prepare 5000 ppm organic nitrogen compound solutions.
180 mL of theanine control solution was added to 20 mL of each of 10000 ppm organic nitrogen compound solutions to prepare 1000 ppm organic nitrogen compound solutions.
180 mL of theanine control solution was added to 20 mL of each of the 5000 ppm organic nitrogen compound solutions to prepare 500 ppm organic nitrogen compound solutions.
180 mL of theanine control solution was added to 20 mL of each of the 1000 ppm organic nitrogen compound solutions to prepare 100 ppm organic nitrogen compound solutions.
Similar solutions were also prepared for organic nitrogen compound C.
A sensory (taste) evaluation was conducted by six panelists. The evaluation category was unpleasant taste, which was considered to be an off-flavor.

panelists [2] = assay: Test Example 4: three-point discrimination sensory evaluation of organic nitrogen compound alone without theanine; format: in vivo; settings: compound alone in deionized water without theanine; 5 ppm test solution; eight panelists; binomial test, p<0.10
Method: Organic nitrogen compound B was added to deionized water (i.e. not containing theanine) to prepare solutions containing 0 (control), 5, 50, and 100 ppm of organic nitrogen compound B.
In other words, […] of organic nitrogen compound B was dissolved in 1000 mL of deionized water (control) to make a 100 ppm solution. 150 mL of deionized water was added to 150 mL of the 100 ppm organic nitrogen compound B solution to make a 50 ppm organic nitrogen compound B solution.
20 mL of the 50 ppm organic nitrogen compound B solution was mixed with 180 mL of deionized water to make a 5 ppm organic nitrogen compound B solution.
A three-point discrimination sensory evaluation was conducted by eight panelists. Bitterness was used as the evaluation category. […] The panelists were asked to select solution(s) that they felt was (were) bitter. Analysis was performed using a binomial test. In the statistical analysis, a significance level of 10% (p<0.10) was used as the threshold for statistical significance.

SMILES	panelists who noticed an unpleasant taste (panelists [1]; 100-500 ppm in 2 mg/mL theanine solution)	panelists who noticed an unpleasant taste (panelists [1]; 1000-5000 ppm in 2 mg/mL theanine solution)	panelists who noticed an unpleasant taste (panelists [1]; 10000 ppm in 2 mg/mL theanine solution)	bitterness, three-point discrimination vs deionized water (panelists [2])
CC(N)=O [organic nitrogen compound C, acetamide]	one of six panelists	two of six panelists	all panelists	
CCNC=O [organic nitrogen compound B, ethylformamide]				no significant difference
